Reference: US12121518B2, “PARP-1 and methods of use thereof” (The Board of Supervisors of Louisiana State University and …, priority 2017, dated 2024)
“Also recorded” adds a separate entry of the source.

Legend:
steroid-resistant asthma = test: Ovalbumin/LPS/IFNγ-based mouse model of steroid-resistant asthma; format: in vivo; conditions: 5 mg/kg
Experimental: (§1) Balb/c mice were sensitized by i.p. injection of 20 μg of Ova in 2.25 mg aluminium hydroxide on days 1 and 14. Steroid resistance was induced by intranasal instillation of Lps (10 μg/mouse) on day 27. Mice were treated with s.c injection of dexmethasone (5 mg/kg) on days 29 and 30. Mice were challenged with aerosolized 1% OVA on days 28, 29, 30 for 20 minutes. Airway hyper responsiveness was measured using plesthesmography 24 hours after the last OVA challenge. Statistics are not included.
as §1, with “Balb I c” for “Balb/c”, “µg/mouse)” for “μg/mouse)”, “All mice were euthanized 48” for “Airway hyper responsiveness was measured using plesthesmography 24”, “challenge then subjected to broncholaveolar lavage. Inflammatory cells were differentiated and assessed using Diff Quick staining.” for “challenge.”
as §1, with “All mice were euthanized 48” for “Airway hyper responsiveness was measured using plesthesmography 24”, “challenge. Cytokines were measured in the collected serum and BAL fluid using multiplex assay. And IgE production was assessed busing sandwich ELISA.” for “challenge.”
Objective: To investigate whether PARP inhibition could restore steroid sensitivity to block LPS/IFN-γ-induced neutrophilia and AHR in steroid-resistant asthma model of the disease. Methods: An ovalbumin/LPS/IFNγ-based model of steroid-resistant murine asthma and an airway epithelial cell culture system were used in this study.

MC-38 cell-based tumors = test: MC-38 cell-based syngeneic colon cancer mouse model; format: in vivo
Excerpt: Mice that received vehicle increased in size in a time-dependent manner and were sacrificed at day 16.
For the syngeneic tumor models, six to eight weeks old WT, PARP-1^+/−, or PARP-1^−/− mice were subcutaneously inoculated with 2.5×10^5 MC-38 cells. In some experiments, MC-38 cells transfected with p193-PGK-SB100X and pKT2PGK-BsdGFP_CLP-Luc plasmids (flanked by Sleeping Beauty transposons) and sorted by FACS. Selected cells were then engrafted onto mice as described above. When tumors became palpable (at day 4-6), WT mice were randomized and assigned to the different experimental groups. […] Tumor volumes were measured with a digital caliper or assessed using GFP/Luc-Biophotonic Imaging (Xenogen IVIS200, PerkinElmer, Boston, MA). Tumors were measured by the greatest longitudinal diameter (length) and the greatest transverse diameter (width) using a digital caliper. Tumor volumes were calculated using the following formula: tumor volume=(length×width^2)/2. For luciferase imaging, tumor-bearing mice received 150 mg/kg of D-luciferin potassium salt solution (PerkinElmer, Boston, MA) i.p. five minutes prior to anesthetic induction and imaging. Bioluminescence within a predetermined region of interest (ROI) on each mouse was quantified in photons/sec/cm^2/sr. At the end of the protocol (day 20-24), mice were sacrificed and tumors were harvested for further processing and analysis. For the adoptive transfer experiments, 3×10^6 BM-MDSCs derived from WT mice or vehicle were injected, intratumorally, into WT or PARP-1^+/− mice. The MDSCs were delivered at five injection sites at days 8 and 16 following engraftment of MC-38 cells.
Tissue processing, immunohistochemistry, immunofluorescence and cytokines measurement—Some tissues were fixed in buffered formalin (10%), paraffin-embedded, then sectioned. Serial sections were subjected to H&E staining, immunohistochemistry (IHC) or immunofluorescence, as described (33), with antibodies to PCNA (Novusbio, Littleton, CO), COX-2 (Santa Cruz Biotechnology, Santa Cruz, CA), ICAM-1 (Santa Cruz Biotechnology), CD8 (Santa Cruz Biotechnology), or Gr1 (eBioscience, San Diego, USA) as previously described (34). Some of the sections were subjected to immunofluorescence with antibodies to CD8 or Gr1. Blood, collected by cardiac puncture, was run through a Microtainer Serum Separator tube (BD, Franklin Lake, NJ). The collected sera were immediately stored at −80° C. for future use and analysis. Cytokine levels were assessed for TNF-α (ELM-TNFα-1), IL-6 (ELM-IL-6-1), and MCP-1 (ELM-MCP1) by ELISA (all from RayBiotech, Norcross, GA) according to the manufacturer's instructions and recommendations.

perforin = test: Perforin immunoblot in CD3/CD28-stimulated spleen CD3+ T cells; format: cell-based; conditions: 3 days
Experimental: CD3^+ T cells were isolated from spleen then stimulated with antibodies to CD3 and CD28 for 3 days. Protein extracts were analyzed by immunoblotting with antibodies to perforin (a marker of T cell function) or GAPDH. Note that the 4 nM concentration increased, while the 1 mM decreased, perforin levels.

KOPT-K1 cells = test: KOPT-K1 cell viability (Trypan exclusion assay); format: cell-based; conditions: ultra-low doses, 2.5 days
Experimental: (§2) Cell viability was assessed 2.5 days after treatment by Trypan exclusion assay. Statistics are not included.
as §2
The ultimate goal of this therapy is maximal inhibition of PARP to achieve “synthetic lethality” taking advantage of the inability of BRCA-deficient cancer cells to repair DNA. […] This was tested in three different leukemia cell lines.

## O=C(c1cc(Cc2n[nH]c(=O)c3ccccc23)ccc1F)N1CCN(C(=O)C2CC2)CC1 [olaparib]
steroid-resistant asthma
  OVA-specific IgE secretion in BALF and serum: marked reduction in OVA-specific IgE secretion
  Th2 cytokine production: marked reduction in Th2 cytokine production
  established steroid-resistant asthma manifestation: reversed the established steroid-resistant asthma manifestation in mice
  infiltration of inflammatory cells into the airways: blocked the infiltration of inflammatory cells into the airways
MC-38 cell-based tumors; 0.2 mg/kg, WT mice, from palpable tumors
  tumor size: barely increased above the size the tumors at the day 5; also recorded: more effective at reducing the tumor burden
MC-38 cell-based tumors; 1 mg/kg, WT mice, from palpable tumors (day 6)
  tumor size: very effective at blocking tumor growth
MC-38 cell-based tumors; 5 mg/kg, WT mice, from palpable tumors
  tumor size: relatively smaller than those of WT; also recorded: significant reduction in the size of MC-38 cell-based tumors
MC-38 cell-based tumors; WT mice, olaparib 0.2 mg/kg on alternate days, anti-PD-1 100 μg/mouse every 4 days, alone or combined
  tumor progression (tumor volume): significantly reduced the progression of MC-38 tumors
MC-38 cell-based tumors; both doses (0.2 and 5 mg/kg)
  intratumoral ICAM-1 immunoreactivity as a surrogate for inflammation: reduction in inflammation
  systemic inflammation (TNF-α, IL-6 and MCP-1 in sera): moderately reduced
perforin; 4 nM
  perforin levels (marker of T cell function): increased
perforin
  perforin levels (marker of T cell function): decreased
KOPT-K1 cells
  steroid resistance (viability with dexamethasone): reverse steroid resistance
